Experimental data reported in patent publication US10858360B2, “Tricyclic gyrase inhibitors” (priority 2011, dated 2020).
Converted amounts (≈) assume the structure as drawn. Like-named read-outs stand apart in the source and are kept apart here.

Tests used:
S. aureus ATCC 13709 = assay: MIC, S. aureus ATCC 13709 (Alamar Blue broth microdilution); format: cell-based; conditions: for MIC: Staphylococcus aureus, ATCC13709, S. aureus
E. coli ATCC 25922 = assay: MIC, E. coli ATCC 25922; format: cell-based; conditions: for MIC: Escherichia coli, ATCC25922, E. coli
[1] = Alamar Blue read after overnight incubation at 35° C.
[2] = S. aureus, Alamar Blue read after overnight incubation at 35° C.
[3] = E. coli, Alamar Blue read after overnight incubation at 35° C.

Structure (SMILES)	MIC (S. aureus ATCC 13709; [1]) [µg/mL]	MIC (E. coli ATCC 25922; [1]) [µg/mL]	MIC Sa (S. aureus ATCC 13709; [2]) [µg/mL]	MIC Ec (E. coli ATCC 25922; [3]) [µg/mL]	further results
CNc1cccc2c1[nH]c1nc(Sc3cnc4cccnc4c3)nc(N3C[C@H](N)C[C@@H]3CO)c12 [1.68]	16 (≈ 33.9 µM)	32 (≈ 67.7 µM)	–	–	–
CNc1cc(F)c(C)c2c1[nH]c1nc(Oc3cnc(C)nc3)nc(N3CC4(CCC4N)C3)c12 (stereo not shown) [6.20]	–	–	–	–	MIC Sa (S. aureus ATCC 13709): 4 µg/mL (≈ 8.92 µM); MIC Ec (E. coli ATCC 25922): >16 µg/mL
CNc1cc(F)cc2c1[nH]c1nc(Oc3cncnc3)nc(N3C[C@@H](N)C4(CC4)C3)c12 [4.006]	≤ 0.5	1 (≈ 2.38 µM)	–	–	–
CNc1cc(F)cc2c1[nH]c1nc(Oc3cncnc3)nc(N3C[C@H](N)C4(CC4)C3)c12 [4.011]	≤ 0.5	≤ 0.5	–	–	–
CNc1cccc2c1[nH]c1nc(Sc3cnc4cccnc4c3)nc(N3CC(N)C4(CC4)C3)c12 (stereo not shown) [1.27]	≤ 0.5	1 (≈ 2.13 µM)	–	–	–
CNc1cc(Cl)cc2c1[nH]c1nc(Oc3cnc(N)nc3)nc(N3CC4C(N)C4C3)c12 (stereo not shown) [6.17]	–	–	–	–	MIC Sa (S. aureus ATCC 13709): ≤0.5 µg/mL; MIC Ec (E. coli ATCC 25922): ≤0.5 µg/mL
CNc1cc(F)cc2c1[nH]c1nc(Oc3cnc(CO)nc3)nc(N3CC4(CC[C@H]4N)C3)c12 [4.388]	≤ 0.5	≤ 0.5	–	–	–
CNc1cccc2c1[nH]c1nc(Oc3cncnc3)nc(N3CC(F)[C@@H](N)C3)c12 (stereo partly shown) [3.63]	≤ 0.5	8 (≈ 20.3 µM)	–	–	–
CNc1cccc2c1[nH]c1nc(Oc3cnc4c(c3)ncn4C)nc(N3CC4C(N)C4C3)c12 (stereo not shown) [3.36]	≤ 0.5	2 (≈ 4.53 µM)	–	–	–
CNc1cccc2c1[nH]c1nc(Sc3cnc4cccnc4c3)nc(N3CCC(CN)C3)c12 (stereo not shown) [1.48]	≤ 0.5	2 (≈ 4.38 µM)	–	–	–
CNc1cccc2c1[nH]c1nc(Oc3cncnc3)nc(N3CC4C(C3)C4NCC3CC3)c12 (stereo not shown) [3.13]	≤ 0.5	1 (≈ 2.26 µM)	–	–	–
CCc1cc(F)cc2c1[nH]c1nc(Oc3cnc(C)nc3)nc(N3CC(N)C4(CC4)C3)c12 (stereo not shown) [2.3]	1 (≈ 2.31 µM)	16 (≈ 36.9 µM)	–	–	–
CNc1cc(F)cc2c1[nH]c1nc(Oc3cnc(N)nc3)nc(N3CC4C[C@@H](N)C4C3)c12 (stereo partly shown) [4.190]	≤ 0.5	1 (≈ 2.3 µM)	–	–	–
CNc1cc(F)cc2c1[nH]c1nc(Oc3cnc(N)nc3)nc(N3CC4C(N)CC4(C)C3)c12 (mixture of isomers) [4.192]	–	–	≤0.5	4	–
CNc1cc(F)cc2c1[nH]c1nc(Oc3cncc(Cl)c3)nc(N3CC(N)C4(CC4)C3)c12 (stereo not shown) [4.273]	–	–	≤0.5	2 (≈ 4.41 µM)	–
CNc1cc(F)cc2c1[nH]c1nc(Oc3cnc(C(C)(C)O)nc3)nc(N3CC4(CC[C@H]4N)C3)c12 [4.413]	≤ 0.5	≤ 0.5	–	–	–
CNc1cc(F)cc2c1[nH]c1nc(Oc3cnc(C)nc3)nc(N3CCCC(N)CC3)c12 (stereo not shown) [4.071]	≤ 0.5	2 (≈ 4.58 µM)	–	–	–
CNc1cc(F)cc2c1[nH]c1nc(Sc3cnc4ccc[n+]([O-])c4c3)nc(N3CCC4(CC4N)C3)c12 (stereo not shown) [1.65]	–	–	≤0.5	≤0.5	–
CNc1cc(F)cc2c1[nH]c1nc(Oc3cnc(CC(=O)N4CCC(N)C4)nc3)nc(N3CC(N)C4(CC4)C3)c12 (stereo not shown) [4.372]	–	–	4 (≈ 7.32 µM)	16 (≈ 29.3 µM)	–
CNc1cccc2c1[nH]c1nc(Oc3cncc(-c4nnn(C)n4)c3)nc(N3CC4C(N)C4C3)c12 (stereo not shown) [3.24]	2 (≈ 4.26 µM)	8 (≈ 17 µM)	–	–	–
CNc1cc(F)cc2c1[nH]c1nc(Oc3cnc(C)nc3)nc(N3CC4C(N)CC(C)(C)C4C3)c12 (stereo not shown) [4.097]	–	–	≤0.5	2 (≈ 4.2 µM)	–
CNc1cccc2c1[nH]c1nc(Sc3cnc4cccnc4c3)nc(N3CC4C(C3)C4(N)CO)c12 (stereo not shown) [1.30]	16 (≈ 33 µM)	> 64	–	–	–
CNc1cc(F)cc2c1[nH]c1nc(Oc3cnc(C)nc3)nc(-c3cc(CN)ccc3F)c12 [4.421]	2 (≈ 4.47 µM)	8 (≈ 17.9 µM)	–	–	–
CCc1cc(F)cc2c1[nH]c1nc(Oc3cncnc3)nc(N3CC4C(N)C4C3)c12 (stereo not shown) [2.2]	2 (≈ 4.93 µM)	4 (≈ 9.87 µM)	–	–	–

Structure (SMILES)	MIC (S. aureus ATCC 13709; [1]) [µg/mL]	MIC (E. coli ATCC 25922; [1]) [µg/mL]	MIC Sa (S. aureus ATCC 13709; [2]) [µg/mL]	MIC Ec (E. coli ATCC 25922; [3]) [µg/mL]	further results
CNc1cc(F)cc2c1[nH]c1nc(Oc3cnc(C4CC4)nc3)nc(N3CC4CCNC4C3)c12 (stereo not shown) [4.250]	–	–	≤0.5	≤0.5	–
CNc1cccc2c1[nH]c1nc(Oc3cnc(N)nc3)nc(N3CC4C(N)C4C3)c12 (stereo not shown) [3.32]	≤ 0.5	2 (≈ 4.96 µM)	–	–	–
CNc1cc(F)cc2c1[nH]c1nc(Oc3cncc(F)c3)nc(N3CC(N)C4(CC4)C3)c12 (stereo not shown) [4.056]	≤ 0.5	≤ 0.5	–	–	–
CNc1cc(F)cc2c1[nH]c1nc(Oc3cnc(N)nc3)nc(N3CCC4CNC4C3)c12 (stereo not shown) [4.181]	≤ 0.5	8 (≈ 18.4 µM)	–	–	–
CNc1cc(F)cc2c1[nH]c1nc(Oc3cncc(C(N)=O)c3)nc(N3CC(N)C4(CC4)C3)c12 (stereo not shown) [4.238]	–	–	2 (≈ 4.32 µM)	>16	–
CNc1cc(F)cc2c1[nH]c1nc(Oc3cnc4[nH]cnc4c3)nc(N3C[C@H](N)C4(CC4)C3)c12 [4.313]	–	–	8 (≈ 17.4 µM)	>16	–
NC1CN(c2nc(Sc3cnc4ccc[n+]([O-])c4c3)nc3[nH]c4c(NC5CC5)cc(F)cc4c23)CC12CC2 (stereo not shown) [1.2]	32 (≈ 60.5 µM)	> 64	–	–	–
CNc1cc(F)cc2c1[nH]c1nc(Oc3cnc(Cl)nc3)nc(N3CC4CC(N)C4C3)c12 (stereo not shown) [4.378]	–	–	≤0.5	≤0.5	–
CNc1cc(F)cc2c1[nH]c1nc(Oc3cncnc3)nc(N3CC4C(N)C4C3)c12 (stereo not shown) [4.001]	–	–	≤0.5	≤0.5	–
CCc1cc(F)cc2c1[nH]c1nc(Oc3cncnc3)nc(N3CC4CC(N)C4C3)c12 (stereo not shown) [2.5]	–	–	≤0.5	2 (≈ 4.77 µM)	–
CNc1cc(F)cc2c1[nH]c1nc(Oc3cnc(C)nc3)nc(-c3ccc(Cl)cc3N)c12 [4.161]	–	–	≤0.5	≤0.5	–
CNc1cc(F)cc2c1[nH]c1nc(Oc3cnc4c(c3)ncn4C)nc(N3CC4C[C@@H](N)C4C3)c12 (stereo partly shown) [4.227]	≤ 0.5	1 (≈ 2.11 µM)	–	–	–
CNc1c(F)ccc2c1[nH]c1nc(Oc3cncnc3)nc(N3CC4C(N)C4C3)c12 (stereo not shown) [6.02]	–	–	–	–	MIC Sa (S. aureus ATCC 13709): ≤0.5 µg/mL; MIC Ec (E. coli ATCC 25922): ≤0.5 µg/mL
CNc1cccc2c1[nH]c1nc(Oc3cncc(C#N)c3)nc(N3CCC(CN)C3)c12 (stereo not shown) [3.57]	1 (≈ 2.41 µM)	8 (≈ 19.3 µM)	–	–	–
CNc1cc(F)cc2c1[nH]c1nc(Oc3cncnc3)nc(N3CCC(C4(N)CC4)C3)c12 (stereo not shown) [4.017]	≤ 0.5	≤ 0.5	–	–	–
CNc1cccc2c1[nH]c1nc(Sc3cnc4ccc[n+]([O-])c4c3)nc(N3CC(C4(N)CC4)C3)c12 [1.33]	≤ 0.5	4 (≈ 8.25 µM)	–	–	–
CNc1cc(F)cc2c1[nH]c1nc(Oc3cnc(C)nc3)nc(N3CC4CCC(N)CC4C3)c12 (stereo not shown) [4.093]	–	–	≤0.5	4 (≈ 8.65 µM)	–
CNc1cccc2c1[nH]c1nc(Oc3ccc(C(=O)OC)nc3)nc(N3CC4C(N)C4C3)c12 (stereo not shown) [3.21]	≤ 0.5	1 (≈ 2.24 µM)	–	–	–
CNc1cc(F)cc2c1[nH]c1nc(Oc3ccc4c(c3)C(=O)NC43CC3)nc(N3CC4CC(N)C4C3)c12 (stereo not shown) [4.381]	–	–	4 (≈ 8.01 µM)	16 (≈ 32 µM)	–
CNc1cc(F)cc2c1[nH]c1nc(Oc3cnc4c(c3)ncn4C)nc(N3CC4CC3CC4N)c12 (stereo not shown) [4.228]	–	–	≤0.5	1 (≈ 2.11 µM)	–
CNc1cc(F)cc2c1[nH]c1nc(Oc3cncc(Cl)c3)nc(N3CC4CC3CC4N)c12 (stereo not shown) [4.279]	–	–	≤0.5	≤0.5	–
CNc1cccc2c1[nH]c1nc(Sc3cnc4ccc[n+]([O-])c4c3)nc(N3CC4CNC4C3)c12 (stereo not shown) [1.32]	≤ 0.5	4 (≈ 8.5 µM)	–	–	–
CNc1cc(F)cc2c1[nH]c1nc(Oc3cnc(C)nc3)nc(-c3cccnc3N)c12 [4.448]	≤ 0.5	1 (≈ 2.4 µM)	–	–	–
